Tests used:
OL precursor cells = test: Kainate-induced excitotoxicity in OL precursor cultures (trypan blue cell viability); format: cell-based, rat; details: 300 μM kainate; for concentration giving significant reduction of kainate-induced cell death: cell survival assessed 24 hr later
Method: Primary oligodendrocyte precursor cells were isolated from mixed glial cultures of the forebrains of newborn Sprague-Dawley rats using a selective detachment procedure as described in detail elsewhere (McCarthy and de Vellis, 1980; Back et al., 1998), and further purified by differential adhesion (Back et al., 1998). Precursor cells were maintained in a chemically-defined medium (CDM) supplemented with recombinant human platelet derived growth factor-AA (PDGF, 10 ng/ml) and basic fibroblast growth factor (bFGF, 10 ng/ml). The CDM was Dulbecco Modified Eagle's Medium (DMEM) containing D-glucose (25 mM), L-glutamine (4 mM), sodium pyruvate (1 mM), human apo-transferrin (50 μg/ml), bovine pancreatic insulin (5 μg/ml), sodium selenium (30 nM), hydrocortisone (10 nM), D-biotin (10 nM), and bovine serum albumin (BSA, 1 mg/ml). All chemicals were from Sigma. Precursor cells were maintained in the presence of growth factors (PDGF+bFGF) by refeeding with fresh medium every 48 hr for 7 days, to promote cell proliferation and prevent differentiation (Bogler et al., 1990). Experiments were performed with cultures maintained in CDM without the supplemental growth factors. These cultures were routinely characterized by immunochemical detection of cell-specific markers as described before (Back et al., 1998). Cultures at the beginning of experiments usually consisted of approximately 90% A2B5^+ oligodendrocyte precursors and less than 5% glial fibrillary acidic protein (GFAP)-positive astrocytes. Cells were plated on poly-DL-ornithine-coated 24-well plates for cell viability assays and on coated glass coverslips for immunocytochemistry, proliferation studies, and lineage analysis. Kainic acid (Sigma-RBI) were first dissolved in 0.1N HCl, and cyclothiazide (Sigma) in 0.1N NaOH, then added to culture medium to the desired final concentration. The pH of the culture media was maintained at 7.4. Topiramate (RWJ Pharmaceutical Research Institute) and NBQX (Sigma-RBI) were directly dissolved in culture medium and applied 10 min prior to exposure of the cells to kainate or oxygen-glucose deprivation (OGD). Following exposure to kainate or OGD for 24 hr, cell death was quantitatively assessed using the trypan blue exclusion method (Perry et al., 1997). Cells in 5-7 adjacent fields (×200) per well were counted to determine cell survival. At least 1000 cells per condition were counted in control cultures. The mean±SEM values for each experimental group were obtained from at least three separate experiments, and each was performed in triplicate. […] OGD has been previously shown to cause non-NMDA receptor-mediated ischemic cell death in a similar culture model (Fern and Moller, 2000). […] Cell survival was assessed 24 hr later.

A2B5+ OL precursor cells = test: Cell proliferation (BrdU incorporation) in OL precursor cultures; format: cell-based, rat; details: topiramate 30 μM, NBQX 100 μM; 24 hours, BrdU last 2 hours
Method: Primary oligodendrocyte precursor cells were isolated from mixed glial cultures of the forebrains of newborn Sprague-Dawley rats using a selective detachment procedure as described in detail elsewhere (McCarthy and de Vellis, 1980; Back et al., 1998), and further purified by differential adhesion (Back et al., 1998). Precursor cells were maintained in a chemically-defined medium (CDM) supplemented with recombinant human platelet derived growth factor-AA (PDGF, 10 ng/ml) and basic fibroblast growth factor (bFGF, 10 ng/ml). […]
Cell proliferation was measured by determining the incorporation of the thymidine analog 5-bromo-2′-deoxyuridine (BrdU, […]) into replicating DNA of cells during the last 2 hr of the experiment. […] After the cells were incubated in a solution containing 2% BSA and 0.2% Triton X-100 for 30 min, BrdU incorporation was detected employing a murine monoclonal anti-BrdU antibody (Chemicon) and FITC-conjugated goat anti-mouse IgG. Quantitative analysis was performed by determining the percent of BrdU^+ cells in the A2B5^+ population. […] All assays were performed in triplicate and at least 1000 cells counted for each data point.
The proliferative capability of the cells was measured by the incorporation of the thymidine analog BrdU into DNA. […] A quantitative analysis was obtained by counting the number of BrdU^+ cells in the A2B5^+ population and calculating a percent. […]

| SMILES | protection against kainate-induced cell death at 50 μM (OL precursor cells; 50 μM NBQX, 24 hr) | concentration giving significant reduction of kainate-induced cell death (OL precursor cells) [µM] | rate of BrdU incorporation (% BrdU+/A2B5+) (A2B5+ OL precursor cells) | cell survival (OL precursor cells; topiramate 50-100 μM, 24 hr) |
| --- | --- | --- | --- | --- |
| NS(=O)(=O)c1cccc2c1c([N+](=O)[O-])cc1nc(O)c(O)nc12 [NBQX, 2,3-Dioxo-6-nitro-1,2,3,4-tetrahydrobenzo[f]quinoxaline-7-sulphonamide] | fully protective | ≥ 10 | Neither topiramate or NBQX altered the rate of BrdU incorporation | – |
| CC1(C)O[C@@H]2[C@@H](CO[C@@]3(COS(N)(=O)=O)OC(C)(C)O[C@@H]23)O1 [topiramate] | – | ≥ 30 | Neither topiramate or NBQX altered the rate of BrdU incorporation | approximately 70% |

— patent US6921775B2, “Methods for modulating brain damage” (Children's Medical Center Corporation, priority 2001, dated 2005)
